Laboratory results from article PMC8948292, “Combining PEGylated mito-atovaquone with MCT and Krebs cycle redox inhibitors as a potential strategy to abrogate tumor cell proliferation” (Scientific Reports, 2022).
Where two headings read alike, the source gives them in different places.

Experiments:
MiaPaCa-2 cells = test: Cell proliferation (cell confluence), IncuCyte Live-Cell Analysis System; format: cell-based, human; conditions: for Inhibition of cell proliferation in combination with AZD-3965: combined with AZD-3965; for IC50: Homo sapiens
Procedure: The following cell lines were obtained from the American Type Culture Collection (Manassas, VA), where they were regularly authenticated: MiaPaCa-2 (ATCC Cat# CRL-1420, human pancreatic cancer cells), U87MG (ATCC Cat# HTB-14, human brain cancer cells), A549 (ATCC Cat# CCL-185, lung cancer cells), and HCT-116 (ATCC Cat# CCL-247, colon cancer cells). All cell lines were grown at 37 °C in 5% carbon dioxide. MiaPaCa-2 cells were maintained in Dulbecco's Modified Eagle Medium (Thermo Fisher Scientific, Waltham, MA; Cat# 11965) supplemented with 10% fetal bovine serum. U87MG, A549, and HCT-116 cells were maintained in RPMI 1640 medium (Thermo Fisher Scientific, Cat# 11875), supplemented with 10% fetal bovine serum. All cells were stored in liquid nitrogen and used within 20 passages after thawing.
The IncuCyte Live-Cell Analysis System was used to monitor cell proliferation[3],[33],[67]. As shown in previous publications[3],[67], this imaging system is probe-free and noninvasive, and enables continuous monitoring of cell confluence over several days. The increase in the percentage of cell confluence was used as a surrogate marker of cell proliferation. In a 96-well plate, cells were plated at 1,000 cells per well in triplicates and left to adhere overnight. Cells were then treated with Mito-PEG-ATO analogs, and the cell confluency was recorded over several days in the IncuCyte Live-Cell Analysis System.

[1] = molecular target: mitochondrial complex III (MiaPaCa-2 cells) (Homo sapiens, UniProt P00156); test: Complex III-dependent oxygen consumption in permeabilized cells, Seahorse XF-96; format: cell-based
Chain of mitochondrial complex III (MiaPaCa-2 cells) (P00156 whole entry): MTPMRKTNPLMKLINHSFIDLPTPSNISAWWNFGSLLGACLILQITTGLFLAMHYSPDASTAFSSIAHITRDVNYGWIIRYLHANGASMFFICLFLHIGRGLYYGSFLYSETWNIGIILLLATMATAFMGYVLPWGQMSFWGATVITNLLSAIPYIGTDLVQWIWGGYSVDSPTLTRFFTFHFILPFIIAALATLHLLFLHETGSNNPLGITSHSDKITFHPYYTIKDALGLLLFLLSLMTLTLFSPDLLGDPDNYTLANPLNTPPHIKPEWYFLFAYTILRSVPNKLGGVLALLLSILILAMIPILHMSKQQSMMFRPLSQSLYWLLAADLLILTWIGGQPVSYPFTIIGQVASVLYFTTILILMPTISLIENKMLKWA
Chain of mitochondrial complex III (MiaPaCa-2 cells) (P47985 whole entry partner): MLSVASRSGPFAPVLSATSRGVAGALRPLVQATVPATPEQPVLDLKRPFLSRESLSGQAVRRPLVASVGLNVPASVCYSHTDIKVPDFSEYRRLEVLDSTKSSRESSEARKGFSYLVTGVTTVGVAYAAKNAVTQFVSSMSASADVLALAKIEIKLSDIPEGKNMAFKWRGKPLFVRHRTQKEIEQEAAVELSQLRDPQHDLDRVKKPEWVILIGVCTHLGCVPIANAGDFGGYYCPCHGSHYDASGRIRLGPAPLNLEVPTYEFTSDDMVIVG
Procedure: (§1) Mitochondrial oxygen consumption was measured using the Seahorse XF-96 Extracellular Flux Analyzer (Agilent, North Billerica, MA)[3],[33],[67],[68]. To determine the intact cell mitochondrial function of MiaPaCa-2 cells in response to Mito-PEG-ATO analogs, we used the bioenergetic function assay previously described[2],[3]. […] From these measurements, indices of mitochondrial function were determined as previously described[2],[3]. For mitochondrial complex activities assays, after cells were treated with Mito-PEG-ATO analogs for 24 h, the OCR-based assessment of mitochondrial complex activities was carried out on acutely permeabilized cells in the presence of different mitochondrial substrates, i.e., pyruvate/malate for complex I and duroquinol for complex III[3],[32],[34],[69]. Rotenone, malonate, and antimycin A (Sigma-Aldrich, St. Louis, MO) were used as specific inhibitors of mitochondrial complexes I, II, and III, respectively. Briefly, cells that were intact after treatments were immediately permeabilized using the Seahorse XF Plasma Membrane Permeabilizer (Agilent). The mitochondrial complex I-induced OCR was assayed in mannitol and sucrose buffer[69] containing 10 mM pyruvate and 1.5 mM malate (substrates for complex I) and 10 mM malonate (which inhibits complex II activities). The mitochondrial complex III-driven OCR was assayed in a mannitol and sucrose buffer containing 0.5 mM duroquinol (substrate for complex III) as well as 1 µM rotenone and 10 mM malonate (which inhibit both complex I and II activities). The IC50 values were determined as previously reported.

[2] = test system: mitochondrial respiration (OCR) in intact MiaPaCa-2 cells; test: Intact cell mitochondrial respiration (basal OCR), Seahorse XF-96; format: cell-based, human; conditions: for OCR (pmol/min/µg protein): intact MiaPaCa-2 cells, baseline OCR, mean, n=4; for IC50: Homo sapiens, read-out: IC50, inhibition of basal OCR in intact cells
Procedure: as §1

[3] = MiaPaCa-2 cells, 1 µM, control ~90% confluence
[4] = MiaPaCa-2 cells, 3 µM, control ~90% confluence
[5] = MiaPaCa-2 cells, 10 µM, control ~90% confluence

## CN(C)C(=N)N=C(N)N [metformin, reference compound]
MiaPaCa-2 cells; MiaPaCa-2 cells
  Inhibition of cell proliferation in combination with AZD-3965: Synergistic inhibition

## O=C1C(OCCOCC[P+](c2ccccc2)(c2ccccc2)c2ccccc2)=C([C@H]2CC[C@H](c3ccc(Cl)cc3)CC2)C(=O)c2ccccc21.[Br-] [Mito-PEG2-ATO, [2-(2-((3-(trans-4-(4-chlorophenyl)cyclohexyl)-1,4-dioxo-1,4-dihydronaphthalen-2-yl)oxy)ethoxy)ethyl]triphenylphosphonium bromide]
[1]; 0.01 µM
  Complex III activity (OCR, % of control): 103.6 % of control
[1]; 0.1 µM
  Complex III activity (OCR, % of control): 95.3 % of control
[1]; 0.2 µM
  Complex III activity (OCR, % of control): 101.4 % of control
[1]; 0.3 µM
  Complex III activity (OCR, % of control): 99.3 % of control
[1]; 0.4 µM
  Complex III activity (OCR, % of control): 99.1 % of control
[1]; 0.5 µM
  Complex III activity (OCR, % of control): 88.9 % of control
[1]; 0.75 µM
  Complex III activity (OCR, % of control): 75.4 % of control
[1]; 1 µM
  Complex III activity (OCR, % of control): 64.3 % of control
[1]; 3 µM
  Complex III activity (OCR, % of control): 15.0 % of control
[1]; MiaPaCa-2 cells, 24 h treatment, antimycin A-inhibitable OCR, read-out: IC50, complex III-induced oxygen consumption (Complex III activity)
  IC50: 1200 nM
[2]; 0.01 µM, 24 h treatment
  OCR (pmol/min/µg protein): 16.21 pmol/min/µg protein
[2]; 0.1 µM, 24 h treatment
  OCR (pmol/min/µg protein): 14.62 pmol/min/µg protein
[2]; 0.2 µM, 24 h treatment
  OCR (pmol/min/µg protein): 14.19 pmol/min/µg protein
[2]; 0.3 µM, 24 h treatment
  OCR (pmol/min/µg protein): 13.58 pmol/min/µg protein
[2]; 0.4 µM, 24 h treatment
  OCR (pmol/min/µg protein): 12.73 pmol/min/µg protein
[2]; 0.5 µM, 24 h treatment
  OCR (pmol/min/µg protein): 10.74 pmol/min/µg protein
[2]; 0.75 µM, 24 h treatment
  OCR (pmol/min/µg protein): 8.54 pmol/min/µg protein
[2]; 1 µM, 24 h treatment
  OCR (pmol/min/µg protein): 6.82 pmol/min/µg protein
[2]; 3 µM, 24 h treatment
  OCR (pmol/min/µg protein): 1.26 pmol/min/µg protein
[2]; 10 µM, 24 h treatment
  OCR (pmol/min/µg protein): -0.10 pmol/min/µg protein
[2]; MIA PaCa-2, 24 h
  IC50: 0.76 µM
MiaPaCa-2 cells; MIA PaCa-2, read-out: IC50, inhibition of cell proliferation
  IC50: 0.3 µM
MiaPaCa-2 cells; MiaPaCa-2 cells, 0.003 µM, control ~90% confluence
  Cell confluence (% of control): 95.33 % of control
MiaPaCa-2 cells; MiaPaCa-2 cells, 0.01 µM, control ~90% confluence
  Cell confluence (% of control): 101.09 % of control
MiaPaCa-2 cells; MiaPaCa-2 cells, 0.03 µM, control ~90% confluence
  Cell confluence (% of control): 98.91 % of control
MiaPaCa-2 cells; MiaPaCa-2 cells, 0.05 µM, control ~90% confluence
  Cell confluence (% of control): 101.49 % of control
MiaPaCa-2 cells; MiaPaCa-2 cells, 0.1 µM, control ~90% confluence
  Cell confluence (% of control): 100.20 % of control
MiaPaCa-2 cells; MiaPaCa-2 cells, 0.2 µM, control ~90% confluence
  Cell confluence (% of control): 91.59 % of control
MiaPaCa-2 cells; MiaPaCa-2 cells, 0.3 µM, control ~90% confluence
  Cell confluence (% of control): 54.02 % of control
MiaPaCa-2 cells; MiaPaCa-2 cells, 0.5 µM, control ~90% confluence
  Cell confluence (% of control): 5.85 % of control
MiaPaCa-2 cells; [3]
  Cell confluence (% of control): 3.35 % of control
MiaPaCa-2 cells; [4]
  Cell confluence (% of control): 3.28 % of control
MiaPaCa-2 cells; [5]
  Cell confluence (% of control): 2.85 % of control

## COCCOCCOCCOCCOC1=C([C@H]2CC[C@H](c3ccc(Cl)cc3)CC2)C(=O)c2ccccc2C1=O [PEG4-ATO, 2-((2,5,8,11-tetraoxatridecan-13-yl)oxy)-3-(trans-4-(4-chlorophenyl)cyclohexyl)naphthalene-1,4-dione]
[2]; 1 µM, 24 h treatment
  OCR (pmol/min/µg protein): 14.02 pmol/min/µg protein
[2]; 3 µM, 24 h treatment
  OCR (pmol/min/µg protein): 11.47 pmol/min/µg protein
[2]; 10 µM, 24 h treatment
  OCR (pmol/min/µg protein): 8.99 pmol/min/µg protein
[2]; 15 µM, 24 h treatment
  OCR (pmol/min/µg protein): 8.66 pmol/min/µg protein
[2]; 17.5 µM, 24 h treatment
  OCR (pmol/min/µg protein): 8.14 pmol/min/µg protein
[2]; 20 µM, 24 h treatment
  OCR (pmol/min/µg protein): 6.77 pmol/min/µg protein
[2]; 22.5 µM, 24 h treatment
  OCR (pmol/min/µg protein): 6.79 pmol/min/µg protein
[2]; 25 µM, 24 h treatment
  OCR (pmol/min/µg protein): 5.93 pmol/min/µg protein
[2]; 30 µM, 24 h treatment
  OCR (pmol/min/µg protein): 6.26 pmol/min/µg protein
[2]; 40 µM, 24 h treatment
  OCR (pmol/min/µg protein): 4.53 pmol/min/µg protein
[2]; 50 µM, 24 h treatment
  OCR (pmol/min/µg protein): 2.22 pmol/min/µg protein
[2]; MIA PaCa-2, MiaPaCa-2 cells, 24 h treatment
  IC50: 22 µM
MiaPaCa-2 cells; MIA PaCa-2, MiaPaCa-2 cells, determined when control cells reached ~90% confluence, read-out: IC50, inhibition of cell proliferation
  IC50: 24 µM
MiaPaCa-2 cells; [3]
  Cell confluence (% of control): 96.77 % of control
MiaPaCa-2 cells; [4]
  Cell confluence (% of control): 98.45 % of control
MiaPaCa-2 cells; MiaPaCa-2 cells, 5 µM, control ~90% confluence
  Cell confluence (% of control): 92.22 % of control
MiaPaCa-2 cells; [5]
  Cell confluence (% of control): 88.90 % of control
MiaPaCa-2 cells; MiaPaCa-2 cells, 15 µM, control ~90% confluence
  Cell confluence (% of control): 79.02 % of control
MiaPaCa-2 cells; MiaPaCa-2 cells, 20 µM, control ~90% confluence
  Cell confluence (% of control): 50.78 % of control
MiaPaCa-2 cells; MiaPaCa-2 cells, 30 µM, control ~90% confluence
  Cell confluence (% of control): 33.44 % of control
MiaPaCa-2 cells; MiaPaCa-2 cells, 35 µM, control ~90% confluence
  Cell confluence (% of control): 24.27 % of control
MiaPaCa-2 cells; MiaPaCa-2 cells, 40 µM, control ~90% confluence
  Cell confluence (% of control): 17.96 % of control
MiaPaCa-2 cells; MiaPaCa-2 cells, 50 µM, control ~90% confluence
  Cell confluence (% of control): 10.27 % of control

## CC(=O)N[C@@H](CS)C(=O)O [N-acetylcysteine, reference compound]
MiaPaCa-2 cells; 10 mM, cells treated with Mito-PEG5-ATO, not shown
  Restoration of cell proliferation in cells treated with Mito-PEG5-ATO: did not restore cell proliferation

## O=C(Cc1cccc(OC(F)(F)F)c1)Nc1ccc(CCCCc2nnc(NC(=O)Cc3ccccn3)s2)nn1 [CB-839, Telaglenastat, reference compound]
MiaPaCa-2 cells; MIA PaCa-2, MiaPaCa-2 cells, inhibitor alone, control ~90% confluence, read-out: IC50 (cell proliferation) without Mito-PEG5-ATO
  IC50: 19 µM
MiaPaCa-2 cells; MiaPaCa-2 cells, combined with Mito-PEG5-ATO
  Inhibition of cell proliferation in combination with Mito-PEG5-ATO (combination index): exhibits synergy

## [H]/N=C(/N)N/C(=N/[H])NCCc1ccccc1 [phenformin, reference compound]
MiaPaCa-2 cells; MiaPaCa-2 cells
  Inhibition of cell proliferation in combination with AZD-3965: Synergistic inhibition
